Laboratory results published in patent US20230060873A1, “COMPOUNDS AND METHODS FOR FORMING ION CHANNELS IN BIOLOGICAL MEMBRANES” (Washington University, priority 2021, published 2023).

Experiments:
[1] = test system: B. subtilis membranes; test: DiSC3(5) depolarization assay, MAcBCE/MAkBCE; format: cell-based, Bacillus subtilis; details: 2 μM compound, 60 mM KCl, NaCl or NMDG-Cl; for change in DiSC3(5) fluorescence (membrane depolarization): 25° C, 10 minutes
Protocol: A 2 mL liquid culture of transformed B. subtilis cells was grown at 37° C. in LB medium supplemented with 5 μg/mL kanamycin until OD600=0.6 was reached. The cells were collected by centrifugation at 2000 rpm over 3 min. The bacteria were washed twice with an NMDG-MeSO3 solution (100 mM NMDG, 10 mM HEPES, pH adjusted to 7.4 with methane sulfonic acid). […] The working dye solution was a 200 μM solution of DiSC3(5) (3,3′-dipropylthiadicarbocyanine iodide; Tokyo Chemical Industry) in DMSO. A series of 2 M solutions of NMDG-Cl, NaCl and KCl were prepared containing 10 mM HEPES; the pH was adjusted to pH 7.4 with NMDG, NaOH or KOH, respectively, to avoid any pH changes after their addition. The experiment was initiated with 3 mL of NMDG-MeSO3 in a quartz cuvette, then 5 μL of the dye solution was added (timepoint t1, 50 sec) for a 0.3 μM final concentration by the end of experiment. This was followed by the addition of 100 μL of the B. subtilis suspension (timepoint t2, 100 sec). After 150 sec (timepoint t3, 250 sec), the fluorescence stabilized to a minimum intensity and 100 μL of the 2 M NMDG-Cl, NaCl or KCl solution was added to reach ˜60 mM final concentration of the salt. The final step was the addition 0.64 μL of a 10 mM stock solution of the desired MAcBCE or MAkBCE compound in TFE (timepoint t4, 400 sec), for a final concentration of 2 μM. Negative controls were performed by adding the same volume of pure TFE to the cuvette at timepoint t4. Fluorescence intensity was recorded each second using a Horiba Fluoromax 4 spectrometer (λexcitation=640 nm; λemission=670 nm). The solution inside the cuvette was vigorously mixed throughout the experiment by using a magnetic stirrer and the temperature was kept constant at 25° C. For purposes of normalization, the fluorescence intensity was divided by the fluorescence level just before timepoint t2.
To determine whether MAcBCE or MAkBCE compounds catalyse ion-selective flux, a set of highly bioactive members bearing ten-carbon chain lengths were tested for their ability to depolarize B. subtilis membranes using a test based on the fluorescent dye 3,3-dipropylthiadicarbocyanine (DiSC3(5)). This set of compounds were selected as four of the most toxic members of the MAcBCE and MAkBCE compound library (5-O-10, 5-A-10, 6-O-10, and 6-A-10; FIG. 3) belong to this group and all are soluble in TFE. The two non-toxic benzo(12-crown-4) scaffold members (4-O-10 and 4-A-10; FIG. 3) were used as controls.
FIGS. 4 and 5 show the time course of DiSC3(5) fluorescence due to the addition of 2 μM 6-A-10 (FIG. 4) and 6-O-10 (FIG. 5). The average of the final fluorescence values (mean±S.E.M.) of at least three experiments are shown in FIGS. 4 and 5 and are similarly plotted for 4-A-10 (FIG. 6), 5-A-10 (FIG. 7), 6-A-10 (FIG. 8), 4-O-10 (FIG. 9), 5-O-10 (FIG. 10), and 6-O-10 (FIG. 11). Experiments were performed in a NMDG-MeSO3 solution (100 mM NMDG, 10 mM HEPES, pH adjusted to 7.4 with methane sulfonic acid). The events are: t1, addition of dye; t2, addition of B. subtilis; t3, addition of a 2 M NMDG-Cl, 2 M NaCl or a 2 M KCl solution up to a final concentration of 60 mM; t4, addition of each MAcBCE or MAkBCE compound up to 2 μM. Experiments were repeated at least four times per condition and normalized relative to the fluorescence intensity just before the addition of cells.
The potentiometric dye DiSC3(5) was used to measure the ability of MAcBCE and MAkBCE compounds to catalyse ion-selective transport. DiSC3(5) undergoes membrane voltage-dependent partitioning between the intracellular and the extracellular medium. DiSC3(5) accumulates within a cell with a polarized membrane (negatively charged inside the cell) and is released when the cell membrane is depolarized (positively charged inside the cell). The membrane voltage in B. subtilis is roughly −120 mV, leading to DiSC3(5) accumulation in the bacteria (timepoint t2 in FIG. 4A-B). […]

[2] = test system: Bacillus subtilis; test: Toxicity (MIC) of MAcBCE and MAkBCE compounds on B. subtilis; format: cell-based; details: B. subtilis 168 WT with pRB374, 12 h, up to 400 μM
Protocol: XL1 blue strain Escherichia coli cells transformed with pET28a plasmid containing a kanamycin resistance gene, were grown at 37° C. in 2 mL of LB medium (Miller's LB broth, Research Products International) supplemented with 50 μg/mL of kanamycin, until the optical density (OD600) reached 0.6. The starting density of bacteria in the remainder of the experiments was a 1/100 dilution of this bacterial density, which was split into 4 mL cultures. A series of 400, 100, 10 and 5 mM stock solutions of each monoacylated benzo(crown-ether) (MAcBCE) and monoalkylated benzo(crown-ether) (MAkBCE) compounds in trifluoroethanol (TFE) were diluted by addition to the 4 mL cultures to reach final concentrations of 400, 200, 100, 50, 20, 15, 10, 5, 4, 3, 2 and 1 μM. The final TFE concentration was never higher than 0.1% v/v. Negative controls in the presence of TFE 0.1% v/v or in the absence of any treatment for each batch gave similar bacterial growth. The cultures were incubated at 37° C. with agitation for 12 h. Bacillus subtilis (168 WT) toxicity tests were carried out using an identical protocol, except they were transformed with the shuttle plasmid pRB374 in the presence of 5 μg/mL of kanamycin. […] Each compound was assayed a minimum of three times at each tested concentration.
The cytotoxicity of MABCE compounds was determined by measuring the MIC in liquid cultures of either the gram-negative bacteria Escherichia coli or the gram-positive bacteria Bacillus subtilis. […] As some curves overlap, portions of them are hidden. Values of MIC of 400 μM indicate that the value was either 400 μM, or it was higher and then was not determined. Each compound was assayed a minimum of three times at each different concentration. MICs for 5-A-4, 5-A-11, 6-A-11 and 6-O-11 could not be determined because the compounds were not soluble in TFE. While E. coli was not susceptible to any of the tested compounds at concentrations as high as 400 μM (data not shown), B. subtilis was susceptible to MABCE compounds bearing 15-crown-5 and 18-crown-6 scaffolds, but not to compounds containing a 12-crown-4 scaffold, as shown in FIG. 1.

SMILES	change in DiSC3(5) fluorescence (membrane depolarization) [1]	toxicity / susceptibility of B. subtilis (MIC, FIG. 1) [2]	kinetics of the depolarization, ion dependence [1]
CCCCCCCCCCc1ccc2c(c1)OCCOCCOCCOCCOCCO2 [Compound 6-A-10, 18-decyl-2,3,5,6,8,9,11,12,14,15-decahydrobenzo[b][1,4,7,10,13,16]hexaoxacyclooctadecine]	clear increase in fluorescence	most toxic	
CCCCCCCCCC(=O)c1ccc2c(c1)OCCOCCOCCOCCOCCO2 [Compound 6-O-10, 1-(2,3,5,6,8,9,11,12,14,15-decahydrobenzo[b][1,4,7,10,13,16]hexaoxacyclooctadecin-18-yl)decan-1-one]	clear increase in fluorescence	most toxic	fastest in presence of K^+ followed by Na^+ and then NMDG^+
